In data set [1] the test system is Campylobacter jejuni. The data set can be described thus: Heat stability of antibiotics (boiling, then qualitative broth microdilution assay). In kind it is cell-based. The note with it: for inactivation of antibiotic by heat treatment: boiling. The protocol:
A broth microdilution method in 96 well plates was used to obtain qualitative and quantitative measures of antibacterial activity. Qualitatively, 50 μl samples of ESP were added to 50 μl suspensions of Campylobacter jejuni (containing about 5×10^5 cfu, as determined by standard serial dilution and plating) in 96 well plates. Plates were evaluated for growth as indicated by the presence of either turbidity or pellet of bacterial cells in the bottoms of U-shaped wells after 48 hr incubation. […] The size of the drug was also taken into consideration. Additionally, an experiment to assess the heat stability of the antibiotics was performed.
For orientation: Dilution methods test growth across graded concentrations, often in twofold steps.

The nature of data set [2]: n-octanol/water partition coefficient (log PC) of antibiotics. It is filed as physicochemical. The settings on record: in parentheses beside log PC. The protocol:
Consideration of CAP contamination. […] Using the worst-case scenario, the predicted maximum amount of CAP absorbed and how much would be released into the medium if the whipworms dissolved (i.e., released 100%) was estimated. […] It was assumed that the aggregate whipworm volume of these eccentrically shaped nematodes occupied 4% of the incubation well volume (4 whipworms/ml at about 10 μl/whipworm).

The conditions of data set [3]: compiled from a drug database at Upjohn; cited from earlier work.
For data set [4], the system named is Campylobacter jejuni. The data set can be described thus: Qualitative broth microdilution assay of ultrafiltration and HPLC fractions. The note with it: C18 reverse phase HPLC, 5–80% ACN gradient. In kind it is cell-based. The protocol: A broth microdilution method in 96 well plates was used to obtain qualitative and quantitative measures of antibacterial activity. Qualitatively, 50 μl samples of ESP were added to 50 μl suspensions of Campylobacter jejuni (containing about 5×10^5 cfu, as determined by standard serial dilution and plating) in 96 well plates. Plates were evaluated for growth as indicated by the presence of either turbidity or pellet of bacterial cells in the bottoms of U-shaped wells after 48 hr incubation.
Ultrafiltration. Ultrafiltration methods were used to nominally size fractionate ESP for an approximate determination of the molecular weight of the antibacterial agent(s). AMICON stirred cells under pressurized nitrogen gas were used to separate ESP into fractions above (retentate) and below (filtrate) 30,000 MW with a Millipore YM30 membrane (Millipore) and fractions above (retentate) and below (filtrate) 10,000 MW with a Millipore YM10 membrane. Prior to bioassay, the concentrated retentate fraction was returned to its original volume in RPMI-1640 media to match the volume of the filtrate so that comparisons of relative activity could be made without distortions due to volume differences. […]
High performance liquid chromatography. […] Absorbance of the eluate was monitored at 214 nm, and fractions were collected manually as peaks were detected. […]

Structures can show the parent of a compound that is named as a salt. Where two headings read alike, the source gives them in different places.

`CC1(C)S[C@@H]2[C@H](NC(=O)Cc3ccccc3)C(=O)N2[C@H]1C(=O)O` [Penicillin G]: the “Antibacterial activity after boiling” value in the data set on Campylobacter jejuni [1] (antibiotics (133 concentration) boiled for 10 minutes) is “−”. Moreover, the “inactivation of antibiotic by heat treatment” value (shortened to “inactivation of antibiotic”) in the data set with Campylobacter jejuni [1] is recorded as “inactivated by heat treatment”. In addition, in data set [2], the Concentrating factor entry was “(71×)”.
`[H]/N=C(/N)N[C@H]1[C@H](O)[C@@H](O)[C@H](O[C@@H]2O[C@@H](C)[C@](O)(C=O)[C@H]2O[C@@H]2O[C@@H](CO)[C@H](O)[C@@H](O)[C@@H]2NC)[C@@H](N/C(N)=N\[H])[C@@H]1O` [Streptomycin sulfate]: in the data set with Campylobacter jejuni [1], the “Antibacterial activity after boiling” value is listed as “+” and the “inactivation of antibiotic” value was “boiling did not inactivate”. The “log PC (n-octanol/water partition coefficient)” value in data set [3] is on record as −9.53.
For the compound `O=C(N[C@H](CO)[C@H](O)c1ccc([N+](=O)[O-])cc1)C(Cl)Cl` [Chloramphenicol, chloramphenicol], in the data set with Campylobacter jejuni [1], the “Antibacterial activity after boiling” value was “+” and the “inactivation of antibiotic” value is on record as “not heat-inactivated”. For the same compound, the “antibacterial activity of HPLC fractions” value with Campylobacter jejuni [4] is “one fraction with antibacterial activity”.

The record behind these values is US7052874B2, “Detection of antibacterial activity in excretory secretory product of adult Trichuris suis” (priority 2000, dated 2006).
